Test results reported in ChEMBL document CHEMBL1944613, “Cloning, characterization and sulfonamide inhibition studies of an α-carbonic anhydrase from the living fossil sponge Astrosclera willeyana” (Bioorg Med Chem, 2012).

target: T1, Astrosclerin-3 (Astrosclera willeyana, UniProt A6YCJ1)
T1 sequence (A6YCJ1 whole entry): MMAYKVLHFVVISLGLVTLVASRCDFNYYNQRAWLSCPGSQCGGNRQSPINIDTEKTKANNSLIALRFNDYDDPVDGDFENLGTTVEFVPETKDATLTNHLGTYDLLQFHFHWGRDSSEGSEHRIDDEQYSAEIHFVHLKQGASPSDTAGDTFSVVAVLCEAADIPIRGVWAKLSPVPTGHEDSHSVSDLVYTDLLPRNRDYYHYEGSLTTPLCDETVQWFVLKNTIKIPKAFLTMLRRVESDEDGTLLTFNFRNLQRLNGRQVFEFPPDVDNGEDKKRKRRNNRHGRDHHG
Description: Inhibition of GST-tagged astrosclera willeyana Astrosclerin-3 expressed in Escherichia coli after 15 mins preincubation by stopped flow CO2 hydration assay

| Ki | SMILES |
| --- | --- |
| 3.9 nM | Nc1ccc(S(=O)(=O)Nc2nnc(S(N)(=O)=O)s2)cc1 |
| 54 nM | Nc1nccc(Nc2ccc(S(N)(=O)=O)cc2)n1 |
| 890 nM | Nc1ccc(S(N)(=O)=O)cc1F |
| 884 nM | Nc1ccc(S(N)(=O)=O)cc1Cl |
| 16 nM | Nc1ccc(S(=O)(=O)NCCc2ccc(S(N)(=O)=O)cc2)cc1 |
| 2.8 nM | Nc1c(F)cc(S(=O)(=O)Nc2nnc(S(N)(=O)=O)s2)cc1Cl |
| 6080 nM | NNc1ccc(S(N)(=O)=O)cc1 |
| 423 nM | NS(=O)(=O)c1ccc(S(=O)(=O)Nc2cccc3c(Cl)c[nH]c23)cc1 |
| 32 nM | NS(=O)(=O)c1nnc(NS(=O)(=O)c2ccccc2)s1 [BENZOLAMIDE] |
| 1210 nM | NS(=O)(=O)c1ccc(C(=O)O)cc1 [CARZENIDE] |
| 675 nM | Cc1ccc(S(N)(=O)=O)cc1 [P-TOLUENESULFONAMIDE] |
| 7700 nM | Nc1ccc(S(N)(=O)=O)cc1 [SULFANILAMIDE] |

Second part, the compound before the results:

| SMILES | Ki |
| --- | --- |
| NNc1ccccc1S(N)(=O)=O | 8850 nM |
| Nc1c(Br)cc(S(N)(=O)=O)cc1Br | 965 nM |
| NS(=O)(=O)c1ccc(CCNC(=O)c2ccc(S(N)(=O)=O)cc2)cc1 | 34 nM |
| Cn1nc(S(N)(=O)=O)sc1=N | 393 nM |
| Nc1c(I)cc(S(N)(=O)=O)cc1I | 879 nM |
| NS(=O)(=O)c1ccc(CCO)cc1 | 1380 nM |
| NS(=O)(=O)c1ccc(CO)cc1 | 4260 nM |
| NCCc1ccc(S(N)(=O)=O)cc1 | 715 nM |
| CCN[C@H]1CN(CCCOC)S(=O)(=O)c2sc(S(N)(=O)=O)cc21 [BRINZOLAMIDE] | 278 nM |
| Cc1ccc(-c2cc(C(F)(F)F)nn2-c2ccc(S(N)(=O)=O)cc2)cc1 [CELECOXIB] | 732 nM |
| NCc1ccc(S(N)(=O)=O)cc1 [MAFENIDE] | 973 nM |
| O=C1NS(=O)(=O)c2ccccc21 [SACCHARIN] | 751 nM |
| CC1(C)O[C@@H]2[C@@H](CO[C@@]3(COS(N)(=O)=O)OC(C)(C)O[C@@H]23)O1 [TOPIRAMATE] | 38 nM |
